Results taken from patent US20230212144A1, “5-MEMBERED HETEROARYL DERIVATIVE CONTAINING AT LEAST ONE N, AND PHARMACEUTICAL COMPOSITION FOR PREVENTING OR TREATING MENTAL DISORDERS, CONTAINING SAME AS ACTIVE INGREDIENT” (DAEGU-GYEONGBUK MEDICAL INNOVATION FOUNDATION, priority 2020, published 2023).

Experiments:
[1] = molecular target: norepinephrine transporter (NET) (Homo sapiens, UniProt P23975); experiment: Norepinephrine reuptake inhibition, [3H]-NE, cells transfected with NE transporter cDNA; conditions: for Triple reuptake inhibition (Ratio %) NET: compound 1 μM, relative to control without compound (100%), lower value = stronger inhibition
Description: (§1) After removing the medium, each compound of Examples or Comparative Examples diluted to 1 μM in uptake buffer was added to a concentration of 200 μL/well and cultured at 37° C. for 15 minutes. 100 μL of uptake buffer containing 20-30 nM [3H]-DA was added and cultured at 37° C. for 5 minutes. The reaction solution was quickly removed and washed three times with 1 mL ice-cold uptake buffer. After dissolving the resultant in 1% SDS (0.5 mL), the degree of binding of radioisotope-labeled dopamine to the transporter was measured.
(§2) For norepinephrine(NE) and serotonin(5-HT), the degree of binding of radioisotope-labeled norepinephrine or serotonin to the transporter was measured in the same manner as above, except that cells transfected with NE or 5-HT transporter cDNA were used and [3H]-NE or [3H]-5-HT was used as a substrate.
(§3) In addition, when evaluating the reuptake inhibitory effect on dopamine, norepinephrine, and serotonin, the same method was performed without treating each compound of Examples or Comparative Examples as a control, the degree of binding of radioisotope-labeled dopamine, norepinephrine, and serotonin to the transporter was measured, and by using this as a reference (100%), the triple reuptake inhibitory effect was evaluated as a relative ratio (Ratio %). That is, in the control group, the binding of dopamine, norepinephrine, and serotonin to transporters is not inhibited, but when each compound of Examples is treated and thus the binding is inhibited, the Ratio % value decreases.

[2] = molecular target: dopamine transporter (DAT) (Homo sapiens, UniProt Q01959); experiment: Dopamine reuptake inhibition, [3H]-DA, HEK-293 cells transfected with dopamine transporter cDNA; conditions: for Triple reuptake inhibition (Ratio %) DAT: compound 1 μM, relative to control without compound (100%), lower value = stronger inhibition
Description: as §1, §3

[3] = molecular target: serotonin transporter (SERT) (Homo sapiens, UniProt P31645); experiment: Serotonin reuptake inhibition, [3H]-5-HT, cells transfected with 5-HT transporter cDNA; conditions: for Triple reuptake inhibition (Ratio %) SERT: compound 1 μM, relative to control without compound (100%), lower value = stronger inhibition
Chain of serotonin transporter (SERT) (P31645 whole entry, species assumed): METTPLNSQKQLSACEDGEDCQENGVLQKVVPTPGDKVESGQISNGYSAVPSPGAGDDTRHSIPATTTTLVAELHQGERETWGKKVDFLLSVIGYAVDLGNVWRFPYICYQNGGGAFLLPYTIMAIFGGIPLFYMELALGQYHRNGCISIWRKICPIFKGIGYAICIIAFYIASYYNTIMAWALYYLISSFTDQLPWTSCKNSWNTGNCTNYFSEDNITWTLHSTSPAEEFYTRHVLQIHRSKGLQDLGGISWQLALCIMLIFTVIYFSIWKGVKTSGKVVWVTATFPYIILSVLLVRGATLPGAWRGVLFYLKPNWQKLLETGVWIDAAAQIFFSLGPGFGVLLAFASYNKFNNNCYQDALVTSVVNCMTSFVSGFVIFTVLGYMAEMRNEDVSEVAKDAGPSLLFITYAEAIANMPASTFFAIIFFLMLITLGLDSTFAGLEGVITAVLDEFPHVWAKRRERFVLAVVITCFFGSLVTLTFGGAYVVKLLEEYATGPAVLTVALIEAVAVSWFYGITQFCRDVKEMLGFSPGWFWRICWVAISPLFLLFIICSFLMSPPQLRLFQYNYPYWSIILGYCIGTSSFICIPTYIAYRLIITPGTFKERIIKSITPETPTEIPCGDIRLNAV
Description: as §1, §2, §3

Chain of dopamine transporter (DAT) (Q01959 whole entry, species assumed): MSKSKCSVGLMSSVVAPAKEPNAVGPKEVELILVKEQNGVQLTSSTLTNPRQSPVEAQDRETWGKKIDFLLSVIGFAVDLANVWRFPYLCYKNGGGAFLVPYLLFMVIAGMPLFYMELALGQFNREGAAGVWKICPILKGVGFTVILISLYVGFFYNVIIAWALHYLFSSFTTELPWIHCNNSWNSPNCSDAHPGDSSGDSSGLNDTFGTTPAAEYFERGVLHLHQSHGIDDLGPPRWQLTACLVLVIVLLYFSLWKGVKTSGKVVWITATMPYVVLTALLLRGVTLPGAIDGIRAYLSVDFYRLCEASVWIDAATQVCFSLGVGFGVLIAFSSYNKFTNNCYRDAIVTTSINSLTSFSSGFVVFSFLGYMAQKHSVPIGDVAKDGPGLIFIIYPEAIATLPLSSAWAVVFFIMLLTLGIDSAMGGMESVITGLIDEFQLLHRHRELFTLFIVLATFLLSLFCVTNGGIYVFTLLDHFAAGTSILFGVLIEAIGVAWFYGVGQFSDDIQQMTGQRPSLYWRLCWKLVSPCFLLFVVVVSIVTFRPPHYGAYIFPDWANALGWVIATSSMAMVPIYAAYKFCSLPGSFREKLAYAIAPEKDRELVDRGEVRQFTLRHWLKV
Chain of norepinephrine transporter (NET) (P23975 whole entry, species assumed): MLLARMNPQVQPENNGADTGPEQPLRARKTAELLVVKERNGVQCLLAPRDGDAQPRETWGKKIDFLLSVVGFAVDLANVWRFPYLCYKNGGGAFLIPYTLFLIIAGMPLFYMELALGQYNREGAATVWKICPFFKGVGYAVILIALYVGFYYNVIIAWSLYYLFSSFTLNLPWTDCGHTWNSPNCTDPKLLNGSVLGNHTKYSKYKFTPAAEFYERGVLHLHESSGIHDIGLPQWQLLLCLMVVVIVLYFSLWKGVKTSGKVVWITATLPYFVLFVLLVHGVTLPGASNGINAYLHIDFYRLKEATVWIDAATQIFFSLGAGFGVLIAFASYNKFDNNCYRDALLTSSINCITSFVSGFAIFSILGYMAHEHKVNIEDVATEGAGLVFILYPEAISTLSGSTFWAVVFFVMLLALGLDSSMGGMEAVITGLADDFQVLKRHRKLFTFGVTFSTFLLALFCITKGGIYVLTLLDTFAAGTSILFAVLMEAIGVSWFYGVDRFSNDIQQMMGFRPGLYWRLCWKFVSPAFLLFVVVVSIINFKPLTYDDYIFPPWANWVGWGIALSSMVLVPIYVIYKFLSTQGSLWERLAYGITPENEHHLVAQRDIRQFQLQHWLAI

IC50 [1] [nM] | Triple reuptake inhibition (Ratio %) NET [1] [%] | IC50 [2] [nM] | Triple reuptake inhibition (Ratio %) DAT [2] [%] | IC50 [3] [nM] | Triple reuptake inhibition (Ratio %) SERT [3] [%] | SMILES
343 | 26.06 | 170 | 14.90 | 3730 | 91.56 | c1ccc(CC2CCN(Cc3nnc(-c4cc5ccccc5[nH]4)[nH]3)CC2)cc1 [Example 1, 2-(5-((4-benzylpiperidin-1-yl)methyl)-4H-1,2,4-triazol-3-yl)-1H-indole]
14 | 2.58 | 83 | 3.94 | 5200 | 67.47 | Fc1ccc2[nH]c(-c3nnc(CN4CCC(Cc5ccccc5)CC4)[nH]3)cc2c1 [Example 2, 2-(5-((4-benzylpiperidin-1-yl)methyl)-4H-1,2,4-triazol-3-yl)-5-fluoro-1H-indole]
 | 124.39 |  | 81.14 |  | 95.94 | c1ccc(C2CCN(Cc3nnc(-c4cc5ccccc5[nH]4)[nH]3)CC2)cc1 [Example 3, 2-(5-((4-phenylpiperidin-1-yl)methyl)-4H-1,2,4-triazol-3-yl)-1H-indole]
 | 64.76 |  | 22.39 |  | 90.26 | c1ccc(CN2CCN(Cc3nnc(-c4cc5ccccc5[nH]4)[nH]3)CC2)cc1 [Example 4, 2-(5-((4-benzylpiperazin-1-yl)methyl)-4H-1,2,4-triazol-3-yl)-1H-indole]
 | 78.01 |  | 88.53 |  | 91.11 | Clc1ccc(CC2CCN(Cc3nnc(-c4cc5ccccc5[nH]4)[nH]3)CC2)cc1Cl [Example 5, 2-(5-((4-(3,4-dichlorobenzyl)piperidin-1-yl)methyl)-4H-1,2,4-triazol-3-yl)-1H-indole]
 | 88.83 |  | 88.63 |  | 70.39 | COc1ccc(CC2CCN(Cc3nnc(-c4cc5ccccc5[nH]4)[nH]3)CC2)cc1 [Example 6, 2-(5-((4-(4-methoxybenzyl)piperidin-1-yl)methyl)-4H-1,2,4-triazol-3-yl)-1H-indole]
 | 103.43 |  | 73.88 |  | 79.48 | Clc1ccc(CC2CCN(Cc3nnc(-c4cc5ccccc5[nH]4)[nH]3)CC2)cc1 [Example 7, 2-(5-((4-(4-chlorobenzyl)piperidin-1-yl)methyl)-4H-1,2,4-triazol-3-yl)-1H-indole]
 | 66.48 |  | 32.29 |  | 88.65 | Clc1cccc(CC2CCN(Cc3nnc(-c4cc5ccccc5[nH]4)[nH]3)CC2)c1 [Example 8, 2-(5-((4-(3-chlorobenzyl)piperidin-1-yl)methyl)-4H-1,2,4-triazol-3-yl)-1H-indole]
36 | 3.38 | 174 | 5.96 | 1150 | 63.05 | COc1cc2cc(-c3nnc(CN4CCC(Cc5ccccc5)CC4)[nH]3)[nH]c2cc1OC [Example 12, 2-(5-((4-benzylpiperidin-1-yl)methyl)-4H-1,2,4-triazol-3-yl)-5,6-dimethoxy-1H-indole]
70 | 4.78 |  | 10.00 | 1210 | 60.60 | COc1ccc2[nH]c(-c3nnc(CN4CCC(Cc5ccccc5)CC4)[nH]3)cc2c1 [Example 13, 2-(5-((4-benzylpiperidin-1-yl)methyl)-4H-1,2,4-triazol-3-yl)-5-methoxy-1H-indole]
173 | 5.84 | 16 | 7.44 | 1660 | 74.39 | Clc1ccc2[nH]c(-c3nnc(CN4CCC(Cc5ccccc5)CC4)[nH]3)cc2c1 [Example 14, 2-(5-((4-benzylpiperidin-1-yl)methyl)-4H-1,2,4-triazol-3-yl)-5-chloro-1H-indole]
1110 | 49.82 | 173 | 21.04 | 25000 | 83.60 | Cc1ccc2[nH]c(-c3nnc(CN4CCC(Cc5ccccc5)CC4)[nH]3)cc2c1 [Example 15, 2-(5-((4-benzylpiperidin-1-yl)methyl)-4H-1,2,4-triazol-3-yl)-5-methyl-1H-indole]
501 | 36.38 | 48 | 12.06 | 3650 | 80.93 | Fc1ccc2cc(-c3nnc(CN4CCC(Cc5ccccc5)CC4)[nH]3)[nH]c2c1 [Example 16, 2-(5-((4-benzylpiperidin-1-yl)methyl)-4H-1,2,4-triazol-3-yl)-6-fluoro-1H-indole]
226 | 11.66 | 83 | 9.25 | 945 | 50.31 | N#Cc1ccc2[nH]c(-c3nnc(CN4CCC(Cc5ccccc5)CC4)[nH]3)cc2c1 [Example 17, 2-(5-((4-benzylpiperidin-1-yl)methyl)-4H-1,2,4-triazol-3-yl)-1H-indol-5-carbonitrile]
611 | 22.07 | 76 | 37.07 | 1580 | 66.40 | COc1ccc2cc(-c3nnc(CN4CCC(Cc5ccccc5)CC4)[nH]3)[nH]c2c1 [Example 18, 2-(5-((4-benzylpiperidin-1-yl)methyl)-4H-1,2,4-triazol-3-yl)-6-methoxy-1H-indole]
188 | 15.80 | 247 | 21.23 | 1170 | 81.23 | COc1cccc2cc(-c3nnc(CN4CCC(Cc5ccccc5)CC4)[nH]3)[nH]c12 [Example 19, 2-(5-((4-benzylpiperidin-1-yl)methyl)-4H-1,2,4-triazol-3-yl)-7-methoxy-1H-indole]
748 | 38.22 | 80 | 5.14 | 643 | 50.14 | COC(=O)c1ccc2[nH]c(-c3nnc(CN4CCC(Cc5ccccc5)CC4)[nH]3)cc2c1 [Example 20, methyl 2-(5-((4-benzylpiperidin-1-yl)methyl)-4H-1,2,4-triazol-3-yl)-1H-indol-5-carboxylate]
619 | 27.49 | 259 | 20.41 | 2090 | 50.05 | c1ccc(CC2CCN(Cc3nnc(-c4ccc5ccccc5c4)[nH]3)CC2)cc1 [Example 21, 4-benzyl-1-((5-(naphthalen-2-yl)-4H-1,2,4-triazol-3-yl)methyl)piperidine]
644 | 32.07 | 187 | 19.30 | 945 | 47.99 | c1ccc(CC2CCN(Cc3nnc(-c4c[nH]c5ccccc45)[nH]3)CC2)cc1 [Example 22, 3-(5-((4-benzylpiperidin-1-yl)methyl)-4H-1,2,4-triazol-3-yl)-1H-indole]
 | 90.00 |  | 46.60 |  | 125.38 | FC(F)(F)c1ccc2[nH]c(-c3nnc(CN4CCC(Cc5ccccc5)CC4)[nH]3)cc2c1 [Example 23, 2-(5-((4-benzylpiperidin-1-yl)methyl)-4H-1,2,4-triazol-3-yl)-5-(trifluoromethyl)-1H-indole]
 | 26.69 |  | 6.56 |  | 109.21 | Clc1cccc2[nH]c(-c3nnc(CN4CCC(Cc5ccccc5)CC4)[nH]3)cc12 [Example 24, 2-(5-((4-benzylpiperidin-1-yl)methyl)-4H-1,2,4-triazol-3-yl)-4-chloro-1H-indole]
 | 76.00 |  | 26.92 |  | 73.17 | c1ccc(CC2CCN(Cc3nnc(-c4cc5ccccc5o4)[nH]3)CC2)cc1 [Example 25, 1-((5-(benzofuran-2-yl)-4H-1,2,4-triazol-3-yl)methyl)-4-benzylpiperidine]

SMILES | IC50 [1] [nM] | Triple reuptake inhibition (Ratio %) NET [1] [%] | IC50 [2] [nM] | Triple reuptake inhibition (Ratio %) DAT [2] [%] | IC50 [3] [nM] | Triple reuptake inhibition (Ratio %) SERT [3] [%]
c1ccc(CC2CCN(Cc3nnc(-c4ccccc4)[nH]3)CC2)cc1 [Example 9, 4-benzyl-1-((5-phenyl-4H-1,2,4-triazol-3-yl)methyl)piperidine] |  | 73.45 |  | 32.29 |  | 95.15
CC(=O)Nc1ccc2[nH]c(-c3nnc(CN4CCC(Cc5ccccc5)CC4)[nH]3)cc2c1 [Example 66, N-(2-(5-((4-benzylpiperidin-1-yl)methyl)-4H-1,2,4-triazol-3-yl)-1H-indol-5-yl)acetamide] |  | 58.77 |  | 51.59 |  | 
CCCCOc1ccc2cc(-c3nnc(CN4CCC(Cc5ccccc5)CC4)[nH]3)[nH]c2c1 [Example 69, 2-(5-((4-benzylpiperidin-1-yl)methyl)-4H-1,2,4-triazol-3-yl)-6-butoxy-1H-indole] |  | 90.43 |  | 50.33 |  | 
